In patent US20240228458A1, “PYRIMIDINE DERIVATIVE HAVING PROTEIN KINASE INHIBITORY ACTIVITY, AND THERAPEUTIC PHARMACEUTICAL COMPOSITION COMPRISING SAME” (THERAPEX CO., LTD., priority 2021, published 2024) one finds GI50 data, which are given here for 15 compounds.

Each structure is given as a SMILES string.

What all share (format): cell-based
The test system of assay [1] is Ba/F3 cells expressing EGFR-wt. The assay can be described thus: Growth inhibition (GI50) of Ba/F3 cells expressing EGFR-wt, Celltiter glo. The note with it: Mus musculus, BaF3, 72 h. In short, it runs like this: (§1)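 We seed Ba/F3 transfectants at 100,000 cells/ml, dose them with ten 4-fold compound dilutions (2 mM top stock, 0.5% DMSO) after 4 h, and culture for 72 h at 37 °C. CellTiter-Glo then reports viable cell number, from which the GI50 is fitted.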

The test system of assay [2] is Ba/F3 cells expressing del19/T790M/C797S (EGFR-DTC). The assay can be described thus: Growth inhibition (GI50) of Ba/F3 cells expressing del19/T790M/C797S (EGFR-DTC), Celltiter glo. The following applies: Mus musculus, BaF3, 72 h. In short, it runs like this: as §1
For assay [3], the system named is Ba/F3 cells expressing L858R/T790M/C797S (EGFR-LTC). The assay is described as follows: Growth inhibition (GI50) of Ba/F3 cells expressing L858R/T790M/C797S (EGFR-LTC), Celltiter glo. The note with it: Mus musculus, BaF3, 72 h. In short, it runs like this:
as §1

For assay [4], the system named is Ba/F3 cells expressing del19/T790M (EGFR-DT). The assay is described as follows: Growth inhibition (GI50) of Ba/F3 cells expressing del19/T790M (EGFR-DT), Celltiter glo. The following applies: Mus musculus, BaF3, 72 h. In short, it runs like this: as §1
Assay [5] concerns Ba/F3 cells expressing L858R/T790M (EGFR-LT). The assay can be described thus: Growth inhibition (GI50) of Ba/F3 cells expressing L858R/T790M (EGFR-LT), Celltiter glo. The following applies: Mus musculus, BaF3, 72 h. The procedure, abridged:
as §1

In assay [6] the test system is parental Ba/F3 cell line. The assay is described as follows: Growth inhibition (GI50) of the parental Ba/F3 cell line (not introduced with EGFR variants), Celltiter glo. The note with it: Mus musculus, BaF3, 72 h, parental Ba/F3 cells. In short, it runs like this:
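Parental Ba/F3 cells (100,000 cells/ml) were treated with 10-point, 4-fold compound dilutions (0.5% DMSO; top stock 2 mM) for 72 h at 37 °C, 5% CO2. Viability was read by CellTiter-Glo; GI50 is the concentration (μM) giving 50% growth inhibition.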

Turning to `COc1cc(N2CCC(N3CCC(N(C)C)C3)CC2)c(C)cc1Nc1ncc(Cl)c(Nc2cc3c(cc2NS(C)(=O)=O)CCO3)n1` (stereo not drawn) [Example 209, N-(6-((5-chloro-2-((4-(4-(3-(dimethylamino)pyrrolidin-1-yl)piperidin-1-yl)-2-methoxy-5-methylphenyl)amino)pyrimidin-4-yl)amino)-2,3-dihydrobenzofuran-5-yl)methanesulfonamide], the GI50 in assay [1] is 100 to 500 nM; in assay [2] it was 1 to 25 nM; in assay [3] it was 25 to 100 nM; in assay [4] it was 25 to 100 nM; in assay [5] it was 1 to 25 nM; in assay [6], 2000 to 10000 nM.
For `COc1ccc(NS(C)(=O)=O)c(Nc2nc(Nc3cc(C)c(N4CCC(N5CCN(C6CC6)CC5)CC4)cc3OC)ncc2Cl)c1` [Example 233, N-(2-((5-chloro-2-((4-(4-(4-cyclopropylpiperazin-1-yl)piperidin-1-yl)-2-methoxy-5-methylphenyl)amino)pyrimidin-4-yl)amino)-4-methoxyphenyl)methanesulfonamide], the GI50 lay within 500 to 2000 nM in assay [1]; 25 to 100 nM in assay [2]; 25 to 100 nM in assay [3]; 25 to 100 nM in assay [4]; 25 to 100 nM in assay [5]; 2000 to 10000 nM in assay [6].
With `CN1CCN(C2CCN(c3ccc(Nc4ncc(Br)c(Nc5cc6c(cc5NS(C)(=O)=O)CCO6)n4)c(Cl)c3)CC2)CC1` [Example 246], the 50% growth inhibitory concentration (GI50) in assay [1] was in the range of 500 to 2000 nM; in assay [2], 100 to 500 nM; in assay [3] it was 1 to 25 nM; in assay [4] it was 100 to 500 nM; in assay [5], 1 to 25 nM; in assay [6], 2000 to 10000 nM.
On to `COc1cc(N2CCC(N3CCN(C)CC3)CC2)c(C)cc1Nc1ncc(Br)c(Nc2cc3c(cc2NS(C)(=O)=O)CCO3)n1` [Example 169, N-(6-((5-bromo-2-((2-methoxy-5-methyl-4-(4-(4-methylpiperazin-1-yl)piperidin-1-yl)phenyl)amino)pyrimidin-4-yl)amino)-2,3-dihydrobenzofuran-5-yl)methanesulfonamide], for which the concentration for 50% growth inhibition (GI50) was in the range of 100 to 500 nM in assay [1]; 1 to 25 nM in assay [2]; 1 to 25 nM in assay [3]; 1 to 25 nM in assay [4]; 1 to 25 nM in assay [5]; 500 to 2000 nM in assay [6].
Turning to `COc1nc(N2CCC(O)CC2)ccc1Nc1ncc(Cl)c(Nc2ccc(F)cc2NS(C)(=O)=O)n1` [Example 21, N-(2-((5-chloro-((6-(4-hydroxypiperidin-1-yl)-2-methoxypyridin-3-yl)amino)pyrimidin-4-yl)amino)-5-fluorophenyl)methanesulfonamide], the GI50 in assay [1] is 2000 to 10000 nM; in assay [2], 500 to 2000 nM; in assay [3], 500 to 2000 nM; in assay [4] it was 500 to 2000 nM; in assay [5], 2000 to 10000 nM; in assay [6] it was more than 10000 nM.
As to `CNS(=O)(=O)c1ccccc1Nc1nc(Nc2cc(C)c(N3CCC(N4CCN(C)CC4)CC3)nc2OC)ncc1Cl` [Example 58, 2-((5-chloro-2-((2-methoxy-5-methyl-6-(4-(4-methylpiperazin-1-yl)piperidin-1-yl)pyridin-3-yl)amino)pyrimidin-4-yl)amino)-N-methylbenzenesulfonamide], the GI50 is 100 to 500 nM in assay [1]; 100 to 500 nM in assay [2]; 100 to 500 nM in assay [3]; 100 to 500 nM in assay [4]; 500 to 2000 nM in assay [5]; 100 to 500 nM in assay [6].
Turning to `COc1nc(N2CCC(N3CCN(C)CC3)CC2)c(C)cc1Nc1ncc(Cl)c(Nc2ccc(F)cc2NS(C)(=O)=O)n1` [Example 15, N-(2-((5-chloro-2-((2-methoxy-5-methyl-6-(4-(4-methylpiperazin-1-yl)piperidin-1-yl)pyridin-3-yl)amino)pyrimidin-4-yl)amino)-5-fluorophenyl)methanesulfonamide], the GI50 in assay [1] lay within 500 to 2000 nM; in assay [2] it was 100 to 500 nM; in assay [3], 100 to 500 nM; in assay [4] it was 1 to 25 nM; in assay [5] it was 100 to 500 nM; in assay [6] it was 500 to 2000 nM.
In the case of `COc1ccc(NS(C)(=O)=O)c(Nc2nc(Nc3cc(C)c(N4CCC(N5CCC(N(C)C)C5)CC4)cc3Cl)ncc2Cl)c1` (stereo not drawn) [Example 230, N-(2-((5-chloro-2-((2-chloro-4-(4-(3-(dimethylamino)pyrrolidin-1-yl)piperidin-1-yl)-5-methylphenyl)amino)pyrimidin-4-yl)amino)-4-methoxyphenyl)methanesulfonamide], the GI50 in assay [1] was in the range of 500 to 2000 nM; in assay [2] it was 100 to 500 nM; in assay [3] it was 100 to 500 nM; in assay [4], 25 to 100 nM; in assay [5] it was 100 to 500 nM; in assay [6], 2000 to 10000 nM.
As for `COc1cc(N2CCC(N3CCN(C)CC3)CC2)c(Cl)cc1Nc1ncc(Cl)c(Nc2cc(Cl)ccc2N(C)S(C)(=O)=O)n1` [Example 170, N-(4-chloro-2-((5-chloro-2-((5-chloro-2-methoxy-4-(4-(4-methylpiperazin-1-yl)piperidin-1-yl)phenyl)amino)pyrimidin-4-yl)amino)phenyl)-N-methylmethanesulfonamide], the GI50 in assay [1] was in the range of 25 to 100 nM; in assay [2], 1 to 25 nM; in assay [3], 1 to 25 nM; in assay [4], 1 to 25 nM; in assay [5], 1 to 25 nM; in assay [6], 100 to 500 nM.
On to `Cc1cc(Nc2ncc(Cl)c(Nc3cc4c(cc3NS(C)(=O)=O)CCO4)n2)c(Cl)cc1N1CCC(N2CCC(N(C)C)C2)CC1` (stereo not drawn) [Example 210, N-(6-((5-chloro-2-((2-chloro-4-(4-(3-(dimethylamino)pyrrolidin-1-yl)piperidin-1-yl)-5-methylphenyl)amino)pyrimidin-4-yl)amino)-2,3-dihydrobenzofuran-5-yl)methanesulfonamide], for which the GI50 lay in the range of 500 to 2000 nM in assay [1]; 100 to 500 nM in assay [2]; 25 to 100 nM in assay [3]; 25 to 100 nM in assay [4]; 25 to 100 nM in assay [5]; 2000 to 10000 nM in assay [6].
`Cc1cc(Nc2ncc(Cl)c(Nc3cc4c(cc3NS(C)(=O)=O)CCO4)n2)c(Cl)cc1N1CCC(N2CCN(C)CC2)CC1` [Example 173, N-(6-((5-chloro-2-((2-chloro-5-methyl-4-(4-(4-methylpiperazin-1-yl)piperidin-1-yl)phenyl)amino)pyrimidin-4-yl)amino)-2,3-dihydrobenzofuran-5-yl)methanesulfonamide]: the GI50 in assay [1] fell in the range of 100 to 500 nM; in assay [2] it was 25 to 100 nM; in assay [3], 25 to 100 nM; in assay [4], 1 to 25 nM; in assay [5], 1 to 25 nM; in assay [6], 100 to 500 nM.
Regarding `COc1ccc(NS(C)(=O)=O)c(Nc2nc(Nc3cc(C)c(N4CCC(N5CCC(C(F)(F)F)CC5)CC4)cc3OC)ncc2Cl)c1` [Example 234, N-(2-((5-chloro-2-((2-methoxy-5-methyl-4-(4-(trifluoromethyl)-[1,4′-bipiperidin]-1′-yl)phenyl)amino)pyrimidin-4-yl)amino)-4-methoxyphenyl)methanesulfonamide], the GI50 in assay [1] was 2000 to 10000 nM; in assay [2], 100 to 500 nM; in assay [3], 100 to 500 nM; in assay [4], 100 to 500 nM; in assay [5], 100 to 500 nM; in assay [6], 2000 to 10000 nM.
Turning to `COc1cc(N2CCC(N3CCN(C)CC3)CC2)c(C)cc1Nc1ncc(Br)c(Nc2cc3c(cc2N(C)S(C)(=O)=O)CCO3)n1` [Example 250, N-(6-((5-bromo-2-((2-methoxy-5-methyl-4-(4-(4-methylpiperazin-1-yl)piperidin-1-yl)phenyl)amino)pyrimidin-4-yl)amino)-2,3-dihydrobenzofuran-5-yl)-N-methylmethanesulfonamide], the GI50 in assay [1] was in the range of 100 to 500 nM; in assay [2] it was 1 to 25 nM; in assay [3] it was 1 to 25 nM; in assay [4] it was 1 to 25 nM; in assay [5] it was 1 to 25 nM; in assay [6], 2000 to 10000 nM.
In the case of `COc1cc(N2CCC(N3CCN(C)CC3)CC2)c(C)cc1Nc1ncc(Cl)c(Nc2ccc3ncccc3c2NS(C)(=O)=O)n1` [Example 115, N-(6-((5-chloro-2-((2-methoxy-5-methyl-4-(4-(4-methylpiperazin-1-yl)piperidin-1-yl)phenyl)amino)pyrimidin-4-yl)amino)quinolin-5-yl)methanesulfonamide], the GI50 in assay [1] lay within 100 to 500 nM; in assay [2] it was 1 to 25 nM; in assay [3], 1 to 25 nM; in assay [4], 100 to 500 nM; in assay [5], 25 to 100 nM; in assay [6], 2000 to 10000 nM.
On to `Cc1cc(Nc2ncc(Cl)c(Nc3cc4c(cc3N(C)S(C)(=O)=O)CCO4)n2)c(Cl)cc1N1CCC(N2CCN(C)CC2)CC1` [Example 263, N-(6-((5-chloro-2-((2-chloro-5-methyl-4-(4-(4-methylpiperazin-1-yl)piperidin-1-yl)phenyl)amino)pyrimidin-4-yl)amino)-2,3-dihydrobenzofuran-5-yl)-N-methylmethanesulfonamide], for which the GI50 in assay [1] was 500 to 2000 nM; in assay [2] it was 500 to 2000 nM; in assay [3] it was 100 to 500 nM; in assay [4] it was 100 to 500 nM; in assay [5] it was 100 to 500 nM; in assay [6], more than 10000 nM.
